A word on the IC50: it is the concentration at which inhibition is half-maximal.

For series [1], the system named is IL-6-dependent MM cell lines. Conditions: cited from earlier work.
A further series concerns the target TYK2 (Homo sapiens, UniProt P29597). Briefly: TYK2 kinase inhibition (Table A1). Type of series: biochemical.
Series [2] addresses T1, human JAK3 (a.a. 781-1124) (Homo sapiens, UniProt P52333).
T1 construct: JAK3 (a.a. 781-1124); His tag (N); made in house; host or cells: insect cells (baculovirus)
Briefly: In vitro JAK kinase assay (HTRF, phosphorylation of a biotinylated peptide), JAK3. Type of series: biochemical. Put shortly:
(§1)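 Kinase reactions ran at room temperature for 1 h with ATP matched per isoform (JAK1 90 μM, JAK2 30 μM, JAK3 3 μM). After an EDTA stop, the phosphorylated biotin-peptide was read by HTRF using Eu-Py20 and SA-APC after 40 min binding.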

The conditions of series [3]: cn_pd bond, 13-membered ring, Pd(OAc)2/Xantphos/Cs2CO3/Et3N.
Series [4] deals with T2, Recombinant Human Anaplastic Lymphoma Kinase (Homo sapiens, UniProt Q9UM73).
T2 construct: purchased Invitrogen, Carlsbad, Calif
T2 sequence (Q9UM73 19-1620): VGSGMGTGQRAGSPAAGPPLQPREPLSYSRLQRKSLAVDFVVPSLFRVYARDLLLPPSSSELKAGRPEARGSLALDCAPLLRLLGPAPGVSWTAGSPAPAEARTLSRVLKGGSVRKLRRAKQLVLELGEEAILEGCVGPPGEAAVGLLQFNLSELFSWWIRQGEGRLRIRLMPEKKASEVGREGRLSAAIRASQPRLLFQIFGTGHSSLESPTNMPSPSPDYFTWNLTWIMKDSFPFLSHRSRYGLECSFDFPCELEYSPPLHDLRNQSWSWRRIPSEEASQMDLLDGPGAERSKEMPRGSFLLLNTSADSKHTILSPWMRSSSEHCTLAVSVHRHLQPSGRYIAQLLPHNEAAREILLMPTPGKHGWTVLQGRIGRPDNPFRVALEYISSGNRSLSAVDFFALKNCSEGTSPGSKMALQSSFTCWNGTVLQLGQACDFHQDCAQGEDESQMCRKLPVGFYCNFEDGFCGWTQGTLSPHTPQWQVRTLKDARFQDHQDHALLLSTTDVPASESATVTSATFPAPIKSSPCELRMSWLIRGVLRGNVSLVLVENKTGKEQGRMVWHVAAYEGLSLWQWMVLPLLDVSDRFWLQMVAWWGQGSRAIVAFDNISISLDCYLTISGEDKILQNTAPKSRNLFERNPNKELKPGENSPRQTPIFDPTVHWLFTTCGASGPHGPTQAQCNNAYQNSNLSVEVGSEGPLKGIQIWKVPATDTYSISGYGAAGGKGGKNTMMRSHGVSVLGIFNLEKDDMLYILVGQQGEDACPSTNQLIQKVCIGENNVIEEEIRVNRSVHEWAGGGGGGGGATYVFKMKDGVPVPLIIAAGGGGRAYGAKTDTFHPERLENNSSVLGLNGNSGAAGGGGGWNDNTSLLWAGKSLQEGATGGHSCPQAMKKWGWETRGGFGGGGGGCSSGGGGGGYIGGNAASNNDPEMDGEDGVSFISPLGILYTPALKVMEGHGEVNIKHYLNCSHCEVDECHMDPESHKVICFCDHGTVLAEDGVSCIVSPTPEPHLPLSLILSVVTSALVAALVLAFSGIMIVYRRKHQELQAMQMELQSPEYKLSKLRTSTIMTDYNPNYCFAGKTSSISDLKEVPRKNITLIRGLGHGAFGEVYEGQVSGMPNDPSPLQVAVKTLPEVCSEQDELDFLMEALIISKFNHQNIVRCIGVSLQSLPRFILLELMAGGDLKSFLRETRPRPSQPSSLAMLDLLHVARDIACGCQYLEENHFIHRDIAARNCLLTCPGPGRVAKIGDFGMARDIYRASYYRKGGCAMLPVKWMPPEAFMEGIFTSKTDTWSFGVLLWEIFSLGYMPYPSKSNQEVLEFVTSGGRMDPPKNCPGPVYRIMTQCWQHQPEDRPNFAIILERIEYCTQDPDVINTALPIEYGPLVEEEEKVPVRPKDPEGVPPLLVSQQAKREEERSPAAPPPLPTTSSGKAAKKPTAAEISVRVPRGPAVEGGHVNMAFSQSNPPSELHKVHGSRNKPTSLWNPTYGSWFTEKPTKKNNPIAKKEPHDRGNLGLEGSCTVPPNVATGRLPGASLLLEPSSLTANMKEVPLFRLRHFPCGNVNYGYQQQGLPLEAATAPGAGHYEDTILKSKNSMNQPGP
As to the kind of experiment: ALK HTRF kinase assay. In kind it is biochemical. The note with it: compound at a concentration of 500 nM or 1 mM. Put shortly:
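Biotinylated peptide substrate, recombinant human ALK; detection via europium-chelate antibody to phosphotyrosine paired with streptavidin-APC. Potency expressed as IC50 from four-parameter curve fitting.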

The target in series [5] is T3, human JAK1 (a.a. 837-1142) (Homo sapiens, UniProt P23458).
T3 construct: human JAK1 (a.a. 837-1142); His tag (N); made in house; host or cells: insect cells (baculovirus)
T3 sequence (P23458 849-1154): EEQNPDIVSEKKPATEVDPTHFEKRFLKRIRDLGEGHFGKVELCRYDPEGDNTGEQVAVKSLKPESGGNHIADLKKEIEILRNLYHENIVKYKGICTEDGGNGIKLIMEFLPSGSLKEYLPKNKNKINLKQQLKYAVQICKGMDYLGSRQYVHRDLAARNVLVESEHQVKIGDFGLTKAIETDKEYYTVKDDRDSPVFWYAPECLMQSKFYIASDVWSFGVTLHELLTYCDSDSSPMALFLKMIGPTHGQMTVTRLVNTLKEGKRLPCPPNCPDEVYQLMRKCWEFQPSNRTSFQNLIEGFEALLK
As to the kind of experiment: In vitro JAK kinase assay (HTRF, phosphorylation of a biotinylated peptide), JAK1. Type of series: biochemical. The note with it: read-out: JAK1 IC50. Put shortly: as §1
Background: TR-FRET usually uses a lanthanide donor and a delayed reading to cut background.

Series [6] concerns the target T4, human JAK2 (a.a. 828-1132) (Homo sapiens, UniProt O60674).
T4 construct: JAK2 (a.a. 828-1132); His tag (N); made in house; host or cells: insect cells (baculovirus)
As to the kind of experiment: In vitro JAK kinase assay (HTRF, phosphorylation of a biotinylated peptide), JAK2. In kind it is biochemical. The essentials: as §1

For series [7] the following is noted: patients; cited from earlier work.
A further series concerns NOD mouse. The note with it: NOD mouse model of autoimmune type 1 diabetes; cited from earlier work.
Series [8] concerns myeloid dendritic cells (DCs). The note with it: CD40-induced maturation of myeloid DCs; cited from earlier work.
The conditions of series [9]: from COc1ccc(Nc2nc(Cl)ncc2Cl)cc1CCc1cncc(N)c1; cn_pd bond; 13-membered ring; Pd(OAc)2/Xantphos/Cs2CO3; 1,4-dioxane/DMF 1:1; 77.0 mM; 150.0 °C; 0.33 h.
For series [10] the following is noted: from Nc1cncc(CCc2cccc(Nc3nc(Cl)ncc3Cl)c2)c1; cn_pd bond; 13-membered ring; Pd(OAc)2/Xantphos/Cs2CO3/Et3N; 1,4-dioxane; 140.0 mM; 150.0 °C; 1.0 h.

Structures are written as SMILES. Where two headings read alike, the source gives them in different places.

TYK2, sequence (P29597 whole entry): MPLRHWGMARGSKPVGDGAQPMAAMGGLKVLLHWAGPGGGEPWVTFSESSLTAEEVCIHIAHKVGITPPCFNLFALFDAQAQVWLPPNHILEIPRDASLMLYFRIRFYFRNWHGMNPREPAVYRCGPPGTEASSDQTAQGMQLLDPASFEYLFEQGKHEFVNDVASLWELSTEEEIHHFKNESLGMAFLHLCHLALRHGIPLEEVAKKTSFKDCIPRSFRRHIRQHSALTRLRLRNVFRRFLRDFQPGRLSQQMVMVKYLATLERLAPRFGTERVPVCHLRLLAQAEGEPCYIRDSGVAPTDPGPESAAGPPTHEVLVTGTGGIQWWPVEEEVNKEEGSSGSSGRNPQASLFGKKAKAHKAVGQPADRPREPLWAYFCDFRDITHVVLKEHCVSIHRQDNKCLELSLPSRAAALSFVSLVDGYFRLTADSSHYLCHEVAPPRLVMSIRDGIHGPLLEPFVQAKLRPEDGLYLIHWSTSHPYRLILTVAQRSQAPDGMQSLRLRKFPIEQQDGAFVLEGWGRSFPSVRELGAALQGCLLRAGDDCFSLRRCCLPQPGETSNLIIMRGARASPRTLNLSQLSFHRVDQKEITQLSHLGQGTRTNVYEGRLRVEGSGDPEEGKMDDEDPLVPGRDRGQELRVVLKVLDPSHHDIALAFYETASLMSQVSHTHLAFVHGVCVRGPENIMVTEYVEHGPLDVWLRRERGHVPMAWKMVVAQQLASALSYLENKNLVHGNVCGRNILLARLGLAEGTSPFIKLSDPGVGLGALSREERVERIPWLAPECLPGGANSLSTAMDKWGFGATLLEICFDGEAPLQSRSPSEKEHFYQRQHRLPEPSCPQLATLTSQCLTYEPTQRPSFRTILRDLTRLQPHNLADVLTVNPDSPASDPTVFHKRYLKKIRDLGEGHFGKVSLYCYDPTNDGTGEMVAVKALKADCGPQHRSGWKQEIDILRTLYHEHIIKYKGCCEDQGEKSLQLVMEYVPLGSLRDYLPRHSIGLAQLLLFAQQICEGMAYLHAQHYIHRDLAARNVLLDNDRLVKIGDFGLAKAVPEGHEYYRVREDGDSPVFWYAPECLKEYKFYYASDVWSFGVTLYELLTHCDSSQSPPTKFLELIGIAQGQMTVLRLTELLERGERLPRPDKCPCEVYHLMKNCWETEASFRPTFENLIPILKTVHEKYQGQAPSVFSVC
T4 sequence (O60674 828-1132): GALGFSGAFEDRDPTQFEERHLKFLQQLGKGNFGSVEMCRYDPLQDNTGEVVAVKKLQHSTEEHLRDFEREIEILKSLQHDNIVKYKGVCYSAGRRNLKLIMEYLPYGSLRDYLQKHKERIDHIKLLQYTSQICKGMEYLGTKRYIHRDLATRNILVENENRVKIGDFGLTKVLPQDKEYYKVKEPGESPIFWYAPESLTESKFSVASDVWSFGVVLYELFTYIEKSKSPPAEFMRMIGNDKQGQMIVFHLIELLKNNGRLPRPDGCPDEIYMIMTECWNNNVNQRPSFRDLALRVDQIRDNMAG
T1 sequence (P52333 781-1124): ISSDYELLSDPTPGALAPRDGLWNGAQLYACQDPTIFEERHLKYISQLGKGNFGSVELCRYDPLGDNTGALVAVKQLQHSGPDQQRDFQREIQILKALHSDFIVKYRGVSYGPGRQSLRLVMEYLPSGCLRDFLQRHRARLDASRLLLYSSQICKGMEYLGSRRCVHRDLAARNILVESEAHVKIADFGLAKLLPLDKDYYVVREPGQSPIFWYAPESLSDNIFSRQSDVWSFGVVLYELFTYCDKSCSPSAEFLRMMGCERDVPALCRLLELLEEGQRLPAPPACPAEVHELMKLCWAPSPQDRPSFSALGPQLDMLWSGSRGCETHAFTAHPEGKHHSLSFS

For `CC(C)(C)c1nc2c3cc[nH]c(=O)c3c3cc(F)ccc3c2[nH]1` [pyridone 6], in series [1], the STAT3 phosphorylation result was “inhibited”; the “tumor cell proliferation and survival” value is given as “inhibited”.

Consider `Clc1cnc2nc1Nc1cccc(c1)CCc1cccc(n1)N2` [Example C17, 6-Chloro-2,4,8,20,22-pentaazatetracyclo[14.3.1.1(3,7).1(9,13)]docosa-1(20),3(22),4,6,9(21),10,12,16,18-nonaene], for which the IC50 (against TYK2; in [2]; in series [5]; in series [6]) was greater than 1 µM in each case. Moreover, the ring closure, isolated yield in [3] (from Nc1cccc(CCc2cccc(Nc3nc(Cl)ncc3Cl)c2)n1, 1,4-dioxane/DMF 1:1, 75.0 mM, 160.0 °C, 0.5 h) came to 37%. The “ALK % inhibition at a concentration of 500 nM or 1 mM” value (“ALK % inhibition at a concentration” for short) in [4] turned out to be 1%.

With `C#Cc1cccc(Nc2ncnc3cc(OCCOC)c(OCCOC)cc23)c1` [Tarceva], the acneiform rash entry in series [7] was “induced acneiform rash with some patients”.

`Clc1cnc2nc1Nc1cccc(c1)CCc1ccnc(c1)N2` [Example C15, 6-Chloro-2,4,8,19,22-pentaazatetracyclo[14.3.1.1(3,7).1(9,13)]docosa-1(20),3(22),4,6,9(21),10,12,16,18-nonaene]: the results for the IC50 (against TYK2; in [5]; in series [6]) were 0.106 µM, 0.7 µM and 0.087 µM, respectively. The compound also returned a ring closure, isolated yield in series [3] (from Nc1cc(CCc2cccc(Nc3nc(Cl)ncc3Cl)c2)ccn1, 1,4-dioxane/DMF 1:1, 57.0 mM, 160.0 °C, 0.33 h) of 61%. For the same compound, in series [4], the “ALK % inhibition at a concentration” value was 6%.

Regarding `Fc1cnc2nc1Nc1cccc(c1)CCc1cc(ccn1)N2` [Example C13, 6-Fluoro-2,4,8,17,22-pentaazatetracyclo[14.3.1.1(3,7).1(9,13)]docosa-1(20),3(22),4,6,9(21),10,12,16,18-nonaene], the IC50 against TYK2 stood at 0.016 µM; in series [2], 0.154 µM; in [5], 0.07 µM; in series [6] it was 0.017 µM. The ring closure, isolated yield in series [3] (from Nc1ccnc(CCc2cccc(Nc3nc(Cl)ncc3F)c2)c1, 1,4-dioxane, 120.0 mM, 150.0 °C, 0.5 h) is 41%. The “ALK % inhibition at a concentration” value in series [4] was 18%.

For `COc1cc2ncnc(Nc3ccc(O)cc3)c2cc1OC` [JANEX-1], in the series on NOD mouse, the onset of diabetes entry is reported as “delayed the onset of diabetes”.

As to `Clc1cnc2nc1Nc1cccc(c1)CCc1cc(ccn1)N2` [Example C12, 6-Chloro-2,4,8,17,22-pentaazatetracyclo[14.3.1.1(3,7).1(9,13)]docosa-1(20),3(22),4,6,9(21),10,12,16,18-nonaene], the IC50 turned out to be 0.013 µM against TYK2, 0.039 µM in series [2], 0.014 µM in series [5] and 0.0095 µM in series [6]. In addition, the ring closure, isolated yield in series [3] (from Nc1ccnc(CCc2cccc(Nc3nc(Cl)ncc3Cl)c2)c1, 1,4-dioxane, 117.0 mM, 150.0 °C, 0.5 h) stood at 36%. Further, the “ALK % inhibition at a concentration” value in series [4] was 26%.

For the compound `COc1cc2ncnc(Nc3ccc(O)c(Br)c3)c2cc1OC` [WHI-P-154], in series [8], the “CD40-induced effects (JAK3 activity, costimulatory molecule expression, IL-12 production, allogeneic stimulatory capacity)” value is “prevented these effects”.

Turning to `Clc1cnc2nc1Nc1cccc(c1)/C=C\c1cc(ccn1)N2` [Example C14, (14Z)-6-Chloro-2,4,8,17,22-pentaazatetracyclo[14.3.1.1(3,7).1(9,13)]docosa-1(20),3(22),4,6,9(21),10,12,14,16,18-decaene], the IC50 on TYK2 worked out at 0.0057 µM; in series [2] it was 0.017 µM; in series [5], 0.01 µM; in [6], 0.0028 µM. In series [3] (from Nc1ccnc(/C=C\c2cccc(Nc3nc(Cl)ncc3Cl)c2)c1, 1,4-dioxane, 114.0 mM, 150.0 °C, 0.5 h), this compound registered a ring closure, isolated yield of 35%. In series [4], the “ALK % inhibition at a concentration” value worked out at 19%.

On to `Fc1cnc2nc1Nc1cccc(c1)CCc1ccnc(c1)N2` [Example C16, 6-Fluoro-2,4,8,19,22-pentaazatetracyclo[14.3.1.1(3,7).1(9,13)]docosa-1(20),3(22),4,6,9(21),10,12,16,18-nonaene], for which the IC50 on TYK2 was 0.083 µM; in series [2] it was 0.35 µM; in [5], greater than 1 µM; in series [6], 0.06 µM. In [3] (from Nc1cc(CCc2cccc(Nc3nc(Cl)ncc3F)c2)ccn1, 1,4-dioxane/DMF 1:1, 60.0 mM, 160.0 °C, 0.5 h), the ring closure, isolated yield is 30%. Moreover, the “ALK % inhibition at a concentration” value in series [4] is reported as 14%.

Take `Fc1cnc2nc1Nc1cccc(c1)CCc1cccc(n1)N2` [Example C18, 6-Fluoro-2,4,8,20,22-pentaazatetracyclo[14.3.1.1(3,7).1(9,13)]docosa-1(20),3(22),4,6,9(21),10,12,16,18-nonaene]: the IC50 (against TYK2; in series [2]; in series [5]; in series [6]) was greater than 1 µM throughout. The same compound displayed a ring closure, isolated yield in series [3] (from Nc1cccc(CCc2cccc(Nc3nc(Cl)ncc3F)c2)n1, 1,4-dioxane/DMF 1:1, 60.0 mM, 160.0 °C, 1.0 h) of 25%. The “ALK % inhibition at a concentration” value in [4] turned out to be 3%.

For `COc1ccc2cc1CCc1cncc(c1)Nc1ncc(Cl)c(n1)N2`, in series [9], the ring closure, crude yield is 85%.

For `Clc1cnc2nc1Nc1cccc(c1)CCc1cncc(c1)N2` [Example C19, 6-Chloro-2,4,8,18,22-pentaazatetracyclo[14.3.1.1(3,7).1(9,13)]docosa-1(20),3(22),4,6,9(21),10,12,16,18-nonaene bis(trifluoroacetate)], the IC50 on TYK2 came to 0.01 µM; in series [2], 0.028 µM; in [5], 0.0029 µM; in series [6], 0.007 µM. Also, in [4], the “ALK % inhibition at a concentration” value was 45%. In addition, in [10], the ring closure, yield after HPLC was 28%.
